This note sets out measurements from US20070009617A1, “Method for preventing fungal growth in plants” (priority 2003, published 2007).

What all share (assay): mycelial growth from inoculum plugs in amended basal nutrient solution
For test [1], the system named is Rhizoctonia solani. It is filed as cell-based. The following applies: fungicide control. The protocol: (§1) The efficacy of the garlic extract was tested against nine (9) soil-borne fungi that cause root and lower stem rots of plants. The fungal pathogens included: Pythium aphanidermatum, Pythium irregular, Pythium ultimum, Phytophthora capsici, Phytophthora cinnamomi, Phytophthora nicotiana, Rhizoctonia solani, Fusarium oxysporum fsp. lycopersici, Fusarium oxysporum f.sp. spinaciae, and Thielaviopsis basicola. All isolates used in this investigation were known to be pathogenic to various cultivated plant species.
(§2) All isolates of Pythium aphanidermatum, Pythium irregular, Pythum ultimum, Phytophthora capsici, Phytophthora cinnamomi, Phytophthora nicotiana, Rhizoctonia solani, Fusarium oxysporum f.sp. lycopersici, Fusarium oxysporum f.sp. spinaciae were grown on standard corn meal agar (CMA) for 8 to 9 days. Plugs from inoculum plates were taken using a #4 cork borer (5 mm diameter). Inoculum plugs were placed into 5-cm sterile plastic petri dishes containing 10 ml of a basal nutrient solution that consisted of 60% (v/v) clarified V-8 juice and sterile distilled water (SDW). Basal nutrient solutions were amended with the appropriate treatments. […] Cultures were placed into a growth chamber and maintained in the dark at 22(C(1(C. After 48 hours, mycelial growth (if any was visible) from culture plugs was measured.

Test [2] has as its system Pythium aphanidermatum, Pythium irregular, Pythium ultimum. It is filed as cell-based, Pythium species. The following applies: basal nutrient solution amended with fungicide control; 48 hours. Here is the method:
as §1, §2

Test [3] relates to Phytophthora capsici, Phytophthora cinnamomi, Phytophthora nicotiana. It is filed as cell-based, Phytophthora species. The note with it: basal nutrient solution amended with fungicide control; 48 hours. The protocol:
as §1, §2

For `O=[N+]([O-])c1c(Cl)c(Cl)c(Cl)c(Cl)c1Cl` [PCNB], the entries for the “growth on amended basal nutrient solution” value in test [1] (first replication (inappropriate concentration)) and in test [1] (second replication) were “limited amount of growth” and “did not grow”, respectively.
Turning to `COCC(=O)N(c1c(C)cccc1C)C(C)C(=O)OC` (stereo not shown) [metalaxyl], the “growth from the inoculum plugs” value in test [2] and in test [3] was “none” throughout.
